Source: patent US11197857B2, “Combination therapy” (GlaxoSmithKline Intellectual Property Development Limited, priority 2016, dated 2021)

Experiments:
PRMT5/MEP50 = PRMT5/MEP50 (Homo sapiens, UniProt O14744); experiment: PRMT family radioactive assay; assay type: biochemical; settings: 60 minute SAM:Enzyme:Compound A preincubation
Lymphoma cell lines = experiment: 6-day growth-death assay (Cell Titer Glo); assay type: cell-based, human; settings: 59 cell lines
Breast cancer cell lines = experiment: 6-day growth-death assay (Cell Titer Glo); assay type: cell-based, human; settings: 29 cell lines
Kidney cancer cell lines = experiment: 6-day growth-death assay (Cell Titer Glo); assay type: cell-based, human; settings: 10 cell lines
[1] = tested on: Prostate cancer cell lines; experiment: 6-day growth-death assay (Cell Titer Glo); assay type: cell-based, human; settings: 4 cell lines
[2] = tested on: ADMA, MMA, SDMA in Toledo cells; experiment: arginine methylation western analysis (time course and washout); assay type: cell-based, human; design: time to return of MMA to baseline after washout / time to return of ADMA to baseline after washout / time to return of SDMA to baseline after washout: dose or concentration left out as unconfirmed
Excerpt: (B) Representative western blots of arginine methylation marks. Regions quantified are denoted by black bars on the right of the gel.
(B) Representative western blots of arginine methylation marks. Regions quantified for (A) are denoted by black bars on the side of the gel.
As predicted, ADMA methylation decreased while MMA increased upon compound exposure (FIG. 12). […] Given the detection of numerous substrates with varying kinetics, and variability of ADMA levels among DMSO-treated samples, both the full lane and a prominent 45 kDa band were characterized to assess ADMA. Increases in MMA were apparent by 24 hours and near maximal by 48 hours while decreases in the 45 kDa ADMA band required 72-96 hours to achieve maximal effect. Increases in SDMA were apparent after 48 hours of compound exposure and continued to increase through 120 hours, consistent with the potential switch from conversion of MMA to ADMA by Type I PRMTs to SDMA by Type II PRMTs (FIG. 12).
Cells were then washed, cultured in Compound A-free media, samples were collected daily through 120 hours, and arginine methylation levels were examined by western analysis. […] SDMA appeared to continue to increase even after 6 hours of washout. This is consistent with the continued increase observed through 120 hours without any obvious plateau (FIG. 12) coupled with the durable increase in MMA that has not yet returned to baseline after washout. Durability of each modification generally reflected the kinetics of arginine methylation changes brought about by Compound A, with MMA being the most rapid.

786-O = experiment: 6-day growth-death assay (Cell Titer Glo); assay type: cell-based, human; settings: ccRCC
Experimental: (§1) The growth of all cell lines was evaluated over time across a wide range of seeding densities to identify conditions that permitted proliferation throughout the entire 6-day assay. Cells were plated at the optimal seeding density and after overnight incubation, a 20-point 2-fold titration of compound was added and plates were incubated for 6 days. A replicate plate of cells was harvested at the time of compound addition to quantify the starting number of cells (T0). Values obtained after the 6 day treatment were expressed as a function of the T0 value and plotted against compound concentration. The T0 value was normalized to 100% and represents the number of cells at the time of compound addition. The data were fit with a 4 parameter equation to generate a concentration response curve and the growth IC50 (gIC50) was determined. The gIC50 is the midpoint of the ‘growth window’, the difference between the number of cells at the time of compound addition (To) and the number of cells after 6 days (DMSO control). The growth-death assay can be used to quantify the net population change, clearly defining cell death (cytotoxicity) as fewer cells compared to the number at the time of compound addition (To).

A498 = experiment: 6-day growth-death assay (Cell Titer Glo); assay type: cell-based, human; settings: A498, ccRCC
Experimental: as §1

CAKI-1 = experiment: 6-day growth-death assay (Cell Titer Glo); assay type: cell-based, human; settings: CAKI-1, ccRCC
Experimental: as §1

CAKI-2 = experiment: 6-day growth-death assay (Cell Titer Glo); assay type: cell-based, human; settings: CAKI-2, ccRCC
Experimental: as §1

G-401 = experiment: 6-day growth-death assay (Cell Titer Glo); assay type: cell-based, human; settings: G-401, Wilm's
Experimental: as §1

G-402 = experiment: 6-day growth-death assay (Cell Titer Glo); assay type: cell-based, human; settings: G-402, Leiomyoblastoma
Experimental: as §1

HL-60 = experiment: 6-day growth-death assay (Cell Titer Glo); assay type: cell-based, human
Experimental: as §1

KASUMI-1 = experiment: 6-day growth-death assay (Cell Titer Glo); assay type: cell-based, human
Experimental: as §1

MOLM-13 = experiment: 6-day growth-death assay (Cell Titer Glo); assay type: cell-based, human; settings: MOLM-13, subtype M5
Experimental: as §1

MV-4-11 = experiment: 6-day growth-death assay (Cell Titer Glo); assay type: cell-based, human; settings: MV-4-11, subtype M5
Experimental: as §1

OCI-AML3 = experiment: 6-day growth-death assay (Cell Titer Glo); assay type: cell-based, human
Experimental: as §1

SK-NEP-1 = experiment: 6-day growth-death assay (Cell Titer Glo); assay type: cell-based, human; settings: SK-NEP-1, Wilm's
Experimental: as §1

TF-1 = experiment: 6-day growth-death assay (Cell Titer Glo); assay type: cell-based, human; settings: TF-1, subtype M6
Experimental: as §1

[3] = tested on: panel of 4 ccRCC cell lines

Sequence of PRMT5/MEP50 (O14744 whole entry): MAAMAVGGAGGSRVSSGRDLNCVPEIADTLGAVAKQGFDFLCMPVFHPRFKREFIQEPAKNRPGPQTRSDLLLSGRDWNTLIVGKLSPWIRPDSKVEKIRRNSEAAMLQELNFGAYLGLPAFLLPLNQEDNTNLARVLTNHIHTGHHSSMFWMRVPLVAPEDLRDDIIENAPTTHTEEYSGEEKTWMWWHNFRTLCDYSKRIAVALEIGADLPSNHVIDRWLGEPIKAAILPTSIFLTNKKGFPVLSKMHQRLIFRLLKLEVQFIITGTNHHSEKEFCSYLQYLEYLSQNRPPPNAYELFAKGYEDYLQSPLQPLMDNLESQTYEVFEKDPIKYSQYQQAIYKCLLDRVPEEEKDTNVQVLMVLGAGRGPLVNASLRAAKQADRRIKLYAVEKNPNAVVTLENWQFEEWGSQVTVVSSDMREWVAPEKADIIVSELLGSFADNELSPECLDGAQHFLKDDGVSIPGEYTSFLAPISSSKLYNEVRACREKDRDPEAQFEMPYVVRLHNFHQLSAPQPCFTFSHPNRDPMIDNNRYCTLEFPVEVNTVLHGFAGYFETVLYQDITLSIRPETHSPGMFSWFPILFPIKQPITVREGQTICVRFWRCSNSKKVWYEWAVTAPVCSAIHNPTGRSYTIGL
Sequence of PRMT5/MEP50 (Q9BQA1 whole entry partner): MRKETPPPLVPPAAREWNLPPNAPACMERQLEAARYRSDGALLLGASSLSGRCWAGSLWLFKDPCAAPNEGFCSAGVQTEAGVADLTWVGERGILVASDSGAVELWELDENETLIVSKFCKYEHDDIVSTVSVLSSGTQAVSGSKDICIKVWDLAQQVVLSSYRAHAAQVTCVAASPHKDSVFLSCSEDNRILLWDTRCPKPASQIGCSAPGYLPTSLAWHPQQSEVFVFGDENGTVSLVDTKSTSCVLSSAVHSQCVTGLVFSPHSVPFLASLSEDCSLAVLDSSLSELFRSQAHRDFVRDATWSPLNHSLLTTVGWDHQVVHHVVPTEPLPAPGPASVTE

Which results are given for `CCOCC1(COCC)CCC(c2n[nH]cc2CN(C)CCNC)CC1` [Compound A]?
inhibition of activity (PRMT5/MEP50): failed to inhibit; % Cytotoxic (cell lines with negative Ymin-T0) (Lymphoma cell lines): 54%; % gIC100 < 2 μM (share of cell lines) (Lymphoma cell lines): 14%; Median gIC100 (Lymphoma cell lines): 21.62 µM; % Cytotoxic (cell lines with negative Ymin-T0) (Breast cancer cell lines): 10%; % gIC100 < 2 μM (share of cell lines) (Breast cancer cell lines): 0%; Median gIC100 (Breast cancer cell lines): 29.36 µM; % Cytotoxic (cell lines with negative Ymin-T0) (Kidney cancer cell lines): 0%; % gIC100 < 2 μM (share of cell lines) (Kidney cancer cell lines): 0%; Median gIC100 (Kidney cancer cell lines): 29.35 µM; % Cytotoxic (cell lines with negative Ymin-T0) [1]: 0%; % gIC100 < 2 μM (share of cell lines) [1]: 0%; Median gIC100 [1]: 29.34 µM; time after which increases in SDMA were apparent ([2]; 0.4 μM): 48 h; time by which increases in MMA were apparent ([2]; 0.4 μM): ≤ 24 h; time by which increases in MMA were near maximal ([2]; 0.4 μM): ≤ 48 h; time required for maximal decrease of 45 kDa ADMA band ([2]; 0.4 μM): 72 to 96 h; ADMA methylation change ([2]; 0.4 μM, up to 120 hours): decreased; MMA change ([2]; 0.4 μM, up to 120 hours): increased; SDMA level change ([2]; 0.4 μM, up to 120 hours): increase; time to return of ADMA to baseline after washout ([2]; then washout): ≤ 24 h; time to return of MMA to baseline after washout ([2]; then washout): ≤ 24 h; time to return of SDMA to baseline after washout ([2]; then washout): ≤ 96 h; Ymin-T0 (786-O): 643.7; Ymin-T0 (A498): 313.4; Ymin-T0 (CAKI-1): 178.7; Ymin-T0 (CAKI-2): 169.6; Ymin-T0 (G-401): 353.7; Ymin-T0 (G-402): 92.6; Ymin-T0 (HL-60; HL-60, subtype M3): −33.4; gIC100 (HL-60; HL-60, subtype M3): 6.38 ± 12.83 µM; IC50 (HL-60; Homo sapiens, HL-60, read-out: gIC50): 20 ± 10 nM; IC50 (KASUMI-1; Homo sapiens, Kasumi 1, read-out: gIC50): 360 ± 250 nM; Ymin-T0 (KASUMI-1; KASUMI-1, subtype M2): −17.7; gIC100 (KASUMI-1; KASUMI-1, subtype M2): 18.88 ± 10.55 µM; Ymin-T0 (MOLM-13): −100.0; gIC100 (MOLM-13): 8.64 ± 0.39 µM; Ymin-T0 (MV-4-11): 565.6; gIC100 (MV-4-11): 14.55 ± 4.27 µM; IC50 (OCI-AML3; Homo sapiens, OCI-AML-3, read-out: gIC50): 870 ± 140 nM; Ymin-T0 (OCI-AML3; OCI-AML3, subtype M4): 523.2; gIC100 (OCI-AML3; OCI-AML3, subtype M4): 29.33 ± 0.00 µM; Ymin-T0 (SK-NEP-1): 25.3; Ymin-T0 (TF-1): 788.1; gIC100 (TF-1): 29.33 ± 0.00 µM; percent growth inhibition reached ([3]; all cell lines evaluated, within 6 days): 100%; concentration at which caspase cleavage occurred ([3]; only at the highest concentration): 30 µM
